# Experimental data published in US10759783B2, “Biaryl inhibitors of Bruton'S tyrosine kinase” (BIOGEN MA INC., priority 2013, dated 2020).
# Biological target: T1, BTK enzyme (Homo sapiens, UniProt Q06187)
# T1 construct: purchased Upstate 14-552
# Experiment: In vitro BTK kinase assay: BTK-POLYGAT-LS assay
# Format: biochemical
# Conditions: ATP 10 μM, read-out: IC50 (10uMATP)
# Experimental: The purpose of the BTK in vitro assay is to determine compound potency against BTK through the measurement of IC50. […] For a typical assay, a 24 μL aliquot of a ATP/peptide master mix (final concentration; ATP 10 μM, polyGAT 100 nM) in kinase buffer (10 mM Tris-HCl pH 7.5, 10 mM MgCl2, 200 μM Na3PO4, 5 mM DTT, 0.01% Triton X-100, and 0.2 mg/ml casein) is added to each well. […] The assay is incubated for 30 minutes before being stopped with 28 μL of a 50 mM EDTA solution. […] The plate is covered and incubated for 45 minutes at room temperature.
# T1 sequence (Q06187 whole entry): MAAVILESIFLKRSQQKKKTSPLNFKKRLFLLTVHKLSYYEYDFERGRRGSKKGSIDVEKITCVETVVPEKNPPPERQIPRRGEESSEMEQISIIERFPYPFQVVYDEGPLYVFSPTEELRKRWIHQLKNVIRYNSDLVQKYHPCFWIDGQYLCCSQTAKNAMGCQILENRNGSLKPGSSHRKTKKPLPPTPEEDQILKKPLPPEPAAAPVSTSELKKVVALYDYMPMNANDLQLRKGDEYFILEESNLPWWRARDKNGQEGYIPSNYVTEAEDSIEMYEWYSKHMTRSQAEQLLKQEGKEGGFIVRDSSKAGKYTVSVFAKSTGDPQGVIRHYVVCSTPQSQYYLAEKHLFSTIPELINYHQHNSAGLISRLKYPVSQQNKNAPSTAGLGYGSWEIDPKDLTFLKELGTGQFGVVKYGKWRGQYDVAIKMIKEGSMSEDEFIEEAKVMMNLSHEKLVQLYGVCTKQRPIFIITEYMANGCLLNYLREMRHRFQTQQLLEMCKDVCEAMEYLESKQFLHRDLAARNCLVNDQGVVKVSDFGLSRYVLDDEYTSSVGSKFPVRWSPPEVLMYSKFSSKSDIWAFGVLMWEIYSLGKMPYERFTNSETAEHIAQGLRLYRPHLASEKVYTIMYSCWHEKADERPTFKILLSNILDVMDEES
row,SMILES,IC50
1,"Cc1cc(-c2ccnc(Nc3cnn(C)c3)n2)cnc1CNC(=O)c1cc2c(s1)CCOC2 [Example I-101, N-((3-methyl-5-(2-((1-methyl-1H-pyrazol-4-yl)amino)pyrimidin-4-yl)pyridin-2-yl)methyl)-6,7-dihydro-4H-thieno[3,2-c]pyran-2-carboxamide]",10 to 99 nM
2,"Cc1nc(-c2ccnc(Nc3cnn(C)c3)c2)ccc1CNC(=O)c1cnc(C(C)(C)C)s1 [Example I-102, 2-(tert-butyl)-N-((6-methyl-2′-((1-methyl-1H-pyrazol-4-yl)amino)-[2,4′-bipyridin]-5-yl)methyl)thiazole-5-carboxamide]",10 to 99 nM
3,"Cc1nc(-c2ccnc(Nc3cnn(C)c3)n2)ccc1CNC(=O)c1cnc(C(C)(C)C)s1 [Example I-103, 2-(tert-butyl)-N-((2-methyl-6-(2-((1-methyl-1H-pyrazol-4-yl)amino)pyrimidin-4-yl)pyridin-3-yl)methyl)thiazole-5-carboxamide]",10 to 99 nM
4,"Cc1nc(-c2ccnc(Nc3cnn(C)c3)n2)ccc1CNC(=O)c1cc2c(s1)CCOC2 [Example I-104, N-((2-methyl-6-(2-((1-methyl-1H-pyrazol-4-yl)amino)pyrimidin-4-yl)pyridin-3-yl)methyl)-6,7-dihydro-4H-thieno[3,2-c]pyran-2-carboxamide]",100 to 999 nM
5,"Cc1cc(-c2ccnc(Nc3cnn(C)c3)n2)ccc1C(C)NC(=O)c1cc2c(s1)CCOC2 (stereo not drawn) [Example I-105, N-(1-(2-methyl-4-(2-((1-methyl-1H-pyrazol-4-yl)amino)pyrimidin-4-yl)phenyl)ethyl)-6,7-dihydro-4H-thieno[3,2-c]pyran-2-carboxamide]",10 to 99 nM
6,"Cc1cc(-c2ccnc(N)n2)ccc1C(C)NC(=O)c1cnc(C(F)(F)F)s1 (stereo not drawn) [Example I-107, N-(1-(4-(2-aminopyrimidin-4-yl)-2-methylphenyl)ethyl)-2-(trifluoromethyl)thiazole-5-carboxamide]",1000 to 10000 nM
7,"Cc1cc(-c2ccnc(Nc3cnn(C)c3)n2)ccc1C(CO)NC(=O)c1cc2c(s1)CCOC2 (stereo not drawn) [Example I-109, N-(2-hydroxy-1-(2-methyl-4-(2-((1-methyl-1H-pyrazol-4-yl)amino)pyrimidin-4-yl)phenyl)ethyl)-6,7-dihydro-4H-thieno[3,2-c]pyran-2-carboxamide]",10 to 99 nM
8,"Cc1cc(-c2nc(N)ncc2F)ccc1CNC(=O)c1cnc(C(C)(C)C)s1 [Example I-110, N-(4-(2-amino-5-fluoropyrimidin-4-yl)-2-methylbenzyl)-2-(tert-butyl)thiazole-5-carboxamide]",10 to 99 nM
9,"Nc1nccc(-c2cnc(CNC(=O)c3cc4c(s3)CCCC4)c(F)c2)n1 [Example I-113, N-((5-(2-aminopyrimidin-4-yl)-3-fluoropyridin-2-yl)methyl)-4,5,6,7-tetrahydrobenzo[b]thiophene-2-carboxamide]",100 to 999 nM
10,"Cc1cc(-c2cnnc(Nc3cnn(C)c3)c2)ccc1CNC(=O)c1cnc(C(C)(C)C)s1 [Example I-114, 2-(tert-butyl)-N-(2-methyl-4-(6-((1-methyl-1H-pyrazol-4-yl)amino)pyridazin-4-yl)benzyl)thiazole-5-carboxamide]",100 to 999 nM
11,"Cn1cc(Nc2nccc(-c3ccc(CNC(=O)c4cc5c(s4)CCOC5)c(F)c3)n2)cn1 [Example I-117, N-(2-fluoro-4-(2-((1-methyl-1H-pyrazol-4-yl)amino)pyrimidin-4-yl)benzyl)-6,7-dihydro-4H-thieno[3,2-c]pyran-2-carboxamide]",10 to 99 nM
12,"Cc1cc(-c2ccnc(Nc3ccc(N4CCN(C)CC4)cn3)n2)ccc1CNC(=O)c1cc2c(s1)CCNC2 [Example I-119, N-(2-methyl-4-(2-((5-(4-methylpiperazin-1-yl)pyridin-2-yl)amino)pyrimidin-4-yl)benzyl)-4,5,6,7-tetrahydrothieno[3,2-c]pyridine-2-carboxamide]",100 to 999 nM
13,"CC(C)(C)c1ncc(C(=O)NC2CCCc3cc(-c4ccnc(N)n4)ccc32)s1 (stereo not drawn) [Example I-136, N-(6-(2-aminopyrimidin-4-yl)-1,2,3,4-tetrahydronaphthalen-1-yl)-2-(tert-butyl)thiazole-5-carboxamide]",10 to 99 nM
14,"Cc1cc(-c2ccnc(N)n2)ccc1CNC(=O)c1cc2c(s1)CCS(=O)(=O)C2 [Example I-138, N-(4-(2-aminopyrimidin-4-yl)-2-methylbenzyl)-6,7-dihydro-4H-thieno[3,2-c]thiopyran-2-carboxamide 5,5-dioxide]",1000 to 10000 nM
15,"Cc1cc(-c2ccnc(N)n2)ccc1CNC(=O)c1cc2c(s1)CCOC2 [Example I-139, N-(4-(2-aminopyrimidin-4-yl)-2-methylbenzyl)-6,7-dihydro-4H-thieno[3,2-c]pyran-2-carboxamide]",10 to 99 nM
16,"Cc1cc(-c2ccnc(N)n2)ccc1CNC(=O)c1cc2c(s1)CCNC2 [Example I-140, N-(4-(2-aminopyrimidin-4-yl)-2-methylbenzyl)-4,5,6,7-tetrahydrothieno[3,2-c]pyridine-2-carboxamide]",10 to 99 nM
17,"Cc1cc(-c2ccnc(N)n2)ccc1CNC(=O)c1cc2c(s1)CCN(C)C2 [Example I-141, N-(4-(2-aminopyrimidin-4-yl)-2-methylbenzyl)-5-methyl-4,5,6,7-tetrahydrothieno[3,2-c]pyridine-2-carboxamide]",100 to 999 nM
18,"CN(Cc1cc(-c2ccnc(N)n2)ccc1CNC(=O)c1cc2c(s1)CCCC2)C(=O)OC(C)(C)C [Example I-144, tert-butyl 5-(2-aminopyrimidin-4-yl)-2-((4,5,6,7-tetrahydrobenzo[b]thiophene-2-carboxamido)methyl)benzyl(methyl)carbamate]",10 to 99 nM
19,"CNCc1cc(-c2ccnc(N)n2)ccc1CNC(=O)c1cc2c(s1)CCCC2 [Example I-145, N-(4-(2-aminopyrimidin-4-yl)-2-((methylamino)methyl)benzyl)-4,5,6,7-tetrahydrobenzo[b]thiophene-2-carboxamide]",100 to 999 nM
20,"C=CC(=O)N(C)Cc1cc(-c2ccnc(N)n2)ccc1CNC(=O)c1cc2c(s1)CCCC2 [Example I-146, N-(4-(2-aminopyrimidin-4-yl)-2-((N-methylacrylamido)methyl)benzyl)-4,5,6,7-tetrahydrobenzo[b]thiophene-2-carboxamide]",100 to 999 nM

# Second part, the compound after the results:
row,IC50,SMILES
1,10 to 99 nM,"Cc1cc(-c2ccnc(Nc3cnn(C)c3)n2)cnc1CNC(=O)c1cnc(C(C)(C)C)s1 [Example I-100, 2-(tert-butyl)-N-((3-methyl-5-(2-((1-methyl-1H-pyrazol-4-yl)amino)pyrimidin-4-yl)pyridin-2-yl)methyl)thiazole-5-carboxamide]"
2,< 10 nM,"Cc1cc(-c2ccnc(Nc3cnn(C)c3)n2)ccc1C(C)NC(=O)c1cnc(C(C)(C)C)s1 (stereo not drawn) [Example I-106, 2-(tert-butyl)-N-(1-(2-methyl-4-(2-((1-methyl-1H-pyrazol-4-yl)amino)pyrimidin-4-yl)phenyl)ethyl)thiazole-5-carboxamide]"
3,< 10 nM,"Cc1cc(-c2nc(Nc3cnn(C)c3)ncc2C)ccc1CNC(=O)c1cnc(C(C)(C)C)s1 [Example I-112, 2-(tert-butyl)-N-(2-methyl-4-(5-methyl-2-((1-methyl-1H-pyrazol-4-yl)amino)pyrimidin-4-yl)benzyl)thiazole-5-carboxamide]"
4,< 10 nM,"Cc1cc(-c2ccnc(Nc3cnn(C[C@@H](N)CO)c3)n2)ccc1CNC(=O)c1cnc(C(C)(C)C)s1 [Example I-133, (R)—N-(4-(2-((1-(2-amino-3-hydroxypropyl)-1H-pyrazol-4-yl)amino)pyrimidin-4-yl)-2-methylbenzyl)-2-(tert-butyl)thiazole-5-carboxamide]"
5,< 10 nM,"CN1CCn2nc(Nc3cc(-c4ccc5c(c4)CCCC5NC(=O)c4cnc(C(C)(C)C)s4)ncn3)cc2C1 (stereo not drawn) [Example I-134, 2-(tert-butyl)-N-(6-(6-((5-methyl-4,5,6,7-tetrahydropyrazolo[1,5-a]pyrazin-2-yl)amino)pyrimidin-4-yl)-1,2,3,4-tetrahydronaphthalen-1-yl)thiazole-5-carboxamide]"
6,< 10 nM,"Nc1nccc(-c2ccc3c(c2)CCCC3NC(=O)c2cc3c(s2)CCCC3)n1 (stereo not drawn) [Example I-137, N-(6-(2-aminopyrimidin-4-yl)-1,2,3,4-tetrahydronaphthalen-1-yl)-4,5,6,7-tetrahydrobenzo[b]thiophene-2-carboxamide]"
7,< 10 nM,"CC(=O)Nc1cc(-c2ccc(CNC(=O)c3cc4c(s3)CCCC4)c(C)c2)ncn1 [Example I-143, N-(4-(6-acetamidopyrimidin-4-yl)-2-methylbenzyl)-4,5,6,7-tetrahydrobenzo[b]thiophene-2-carboxamide]"
8,< 10 nM,"Cc1cc(-c2cc(Nc3cc4n(n3)CCCN(C)C4)ncn2)ccc1CNC(=O)c1cnc(C(C)(C)C)s1 [Example I-147, 2-(tert-butyl)-N-(2-methyl-4-(6-((5-methyl-5,6,7,8-tetrahydro-4H-pyrazolo[1,5-a][1,4]diazepin-2-yl)amino)pyrimidin-4-yl)benzyl)thiazole-5-carboxamide]"
9,< 10 nM,"Cc1cc(-c2cc(Nc3cc4n(n3)CCCNC4)ncn2)ccc1CNC(=O)c1cnc(C(C)(C)C)s1 [Example I-148, 2-(tert-butyl)-N-(2-methyl-4-(6-((5,6,7,8-tetrahydro-4H-pyrazolo[1,5-a][1,4]diazepin-2-yl)amino)pyrimidin-4-yl)benzyl)thiazole-5-carboxamide]"
10,< 10 nM,"Cc1cc(-c2cc(Nc3cc4n(n3)CCCN(C(=O)OC(C)(C)C)C4)ncn2)ccc1CNC(=O)c1cnc(C(C)(C)C)s1 [Example I-149, tert-butyl 2-((6-(4-((2-(tert-butyl)thiazole-5-carboxamido)methyl)-3-methylphenyl)pyrimidin-4-yl)amino)-7,8-dihydro-4H-pyrazolo[1,5-a][1,4]diazepine-5(6H)-carboxylate]"
